# According to ChEMBL document CHEMBL5120828, “Identification and optimisation of a pyrimidopyridone series of IRAK4 inhibitors” (Bioorg Med Chem, 2022):
# Columns and labels:
# [1] = Octanol/water partition coefficient, logP of compound at pH 7.4 by shake-flask method; format: physicochemical
# [2] = target: T1, Interleukin-1 receptor-associated kinase 4 (Homo sapiens, UniProt Q9NWZ3); test: Inhibition of human recombinant IRAK4 assessed as unphosphorylated KKARFSRFAGSSPSQSSMVAR peptide substrate measured after 2 hrs by LC-MS/MS analysis
# T1 sequence (Q9NWZ3 whole entry): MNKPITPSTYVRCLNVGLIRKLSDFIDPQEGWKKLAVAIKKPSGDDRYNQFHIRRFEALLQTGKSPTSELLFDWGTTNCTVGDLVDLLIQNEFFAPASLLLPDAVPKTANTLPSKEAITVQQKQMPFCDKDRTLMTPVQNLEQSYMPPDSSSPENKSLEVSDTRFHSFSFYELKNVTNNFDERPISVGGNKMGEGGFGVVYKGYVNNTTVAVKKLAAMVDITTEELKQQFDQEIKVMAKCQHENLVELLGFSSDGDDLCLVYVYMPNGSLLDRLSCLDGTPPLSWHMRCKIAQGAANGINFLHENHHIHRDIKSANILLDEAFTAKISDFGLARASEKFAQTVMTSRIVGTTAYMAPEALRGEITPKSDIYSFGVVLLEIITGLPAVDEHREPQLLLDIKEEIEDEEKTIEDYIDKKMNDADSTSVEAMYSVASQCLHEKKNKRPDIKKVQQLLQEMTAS
# [3] = Intrinsic permeability across apical to basolateral side in human Caco-2 cells; format: ADME, cell-based
# [4] = target: T1, Interleukin-1 receptor-associated kinase 4; test: Inhibition of IRAK4 in IL1-stimulated human KARPAS-299 cells assessed as fluorescence intensity; format: cell-based
# [5] = Metabolic stability in human liver microsomes assessed as intrinsic clearance; format: ADME
# [6] = Efflux ratio of permeability in human Caco-2 cells; format: ADME, cell-based
# [7] = Aqueous solubility of compound; format: physicochemical; details: buffer
# [8] = target: Voltage-gated inwardly rectifying potassium channel KCNH2 (Homo sapiens, UniProt Q12809); test: Inhibition of human ERG channel; format: toxicity
# Chain of Voltage-gated inwardly rectifying potassium channel KCNH2 (Q12809 whole entry): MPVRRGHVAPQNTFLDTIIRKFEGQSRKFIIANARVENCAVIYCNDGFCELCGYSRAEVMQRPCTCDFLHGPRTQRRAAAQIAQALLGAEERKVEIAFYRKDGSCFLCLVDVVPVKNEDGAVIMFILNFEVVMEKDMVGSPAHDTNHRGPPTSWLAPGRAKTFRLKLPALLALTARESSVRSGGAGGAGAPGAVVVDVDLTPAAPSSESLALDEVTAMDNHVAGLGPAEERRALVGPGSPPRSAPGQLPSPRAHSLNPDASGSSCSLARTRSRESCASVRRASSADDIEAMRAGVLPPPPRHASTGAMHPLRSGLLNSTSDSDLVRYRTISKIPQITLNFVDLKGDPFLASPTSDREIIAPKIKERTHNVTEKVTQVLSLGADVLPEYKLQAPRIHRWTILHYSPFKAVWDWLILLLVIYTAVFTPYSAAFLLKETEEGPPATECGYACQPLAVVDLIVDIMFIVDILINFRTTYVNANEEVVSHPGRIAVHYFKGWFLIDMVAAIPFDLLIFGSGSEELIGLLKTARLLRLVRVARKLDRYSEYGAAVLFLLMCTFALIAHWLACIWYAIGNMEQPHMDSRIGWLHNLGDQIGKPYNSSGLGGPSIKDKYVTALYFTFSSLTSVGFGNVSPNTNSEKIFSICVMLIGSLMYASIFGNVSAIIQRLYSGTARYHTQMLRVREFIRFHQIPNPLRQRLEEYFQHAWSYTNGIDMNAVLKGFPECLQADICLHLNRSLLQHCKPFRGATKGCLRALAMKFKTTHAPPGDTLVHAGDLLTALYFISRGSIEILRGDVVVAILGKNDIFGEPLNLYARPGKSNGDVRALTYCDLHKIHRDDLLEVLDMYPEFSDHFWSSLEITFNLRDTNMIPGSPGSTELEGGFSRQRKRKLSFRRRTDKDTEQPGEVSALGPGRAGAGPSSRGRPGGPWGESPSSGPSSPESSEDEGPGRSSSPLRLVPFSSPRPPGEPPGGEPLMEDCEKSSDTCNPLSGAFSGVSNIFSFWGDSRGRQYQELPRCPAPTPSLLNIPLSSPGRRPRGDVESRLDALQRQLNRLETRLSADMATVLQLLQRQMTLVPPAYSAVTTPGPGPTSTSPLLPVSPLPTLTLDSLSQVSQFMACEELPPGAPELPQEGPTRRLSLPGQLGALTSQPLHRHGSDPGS
# [9] = Fraction unbound in human plasma; format: ADME, cell-free
logD [1],IC50 [2] [µM],Papp A→B [3] [nm/s],IC50 [4] [µM],CLint [5] [µL/min/mg],efflux ratio [6],solubility [7] [µM],fraction unbound [9],SMILES,IC50 [8] [µM]
2.6,0.005,79,0.18,37,2.1,–,–,COC(=O)N1CCN([C@H]2CC[C@H](Nc3nc(Nc4cnn(C)c4)nc4ccc(C)nc34)CC2)CC1,–
1.2,0.016,–,0.32,14,–,–,–,CN1C[C@H]2C[C@@H]1C[C@@H]2n1cc(Nc2nc(NC3(C)CC3)c3c(=O)n(C)ccc3n2)cn1,–
2.4,0.005,170,0.15,22,3,–,–,COC(=O)N1CCN([C@H]2CC[C@H](Nc3nc(Nc4cnn(C)c4)nc4ccn(C)c(=O)c34)CC2)CC1,–
2.4,0.001,170,0.039,25,3.1,–,–,CN1CCC(n2cc(Nc3nc(NC4(C)CC4)c4c(=O)n(C)ccc4n3)cn2)CC1,–
2,0.003,–,0.079,12,–,–,–,C[C@H](F)Cn1ccc2nc(Nc3cnn([C@H]4C[C@H]5C[C@@H]4CN5C)c3)nc(NC3(C)CC3)c2c1=O,–
2,0.004,120,0.09,9.6,7.1,–,–,CN1CC2(CC(n3cc(Nc4nc(NC5(C)CC5)c5c(=O)n(CC(F)F)ccc5n4)cn3)C2)C1,–
2.4,0.002,–,0.075,89,–,–,–,CN1CC(n2cc(Nc3nc(NC4(C)CC4)c4c(=O)n(C)ccc4n3)cn2)CCC1=O (centres undefined),–
2.7,–,–,–,82,–,–,–,Cn1cc(Nc2nc(NC3(C)CC3)c3nc(CC#N)ccc3n2)cn1,–
2.9,0.008,670,0.19,13,0.75,–,–,Cn1cc(Nc2nc(NC3(C)CC3)c3c(=O)n(C)ccc3n2)cn1,–
2.3,0.023,–,0.44,25,–,–,–,COC(=O)N1CCN([C@H]2CC[C@H](Nc3nc(Nc4cnn(C)c4)nc4ccn(CC#N)c(=O)c34)CC2)CC1,–
1.9,0.004,–,0.15,23,–,–,–,CN1C[C@H]2C[C@@H]1C[C@@H]2n1cc(Nc2nc(NC3(C)CC3)c3c(=O)n(CC(F)F)ccc3n2)cn1,–
2.9,0.002,–,0.083,50,–,–,–,CN1CCC(n2cc(Nc3nc(NC4(C)CC4)c4c(=O)n(CC(F)F)ccc4n3)cn2)CC1,–
1.4,0.003,–,0.09,17,–,–,–,CN1C[C@@H]2C[C@H]1C[C@@H]2n1cc(Nc2nc(NC3(C)CC3)c3c(=O)n(C)ccc3n2)cn1,–
3,0.004,–,0.15,51,–,–,–,C[C@@H](CF)n1ccc2nc(Nc3cnn(C4CCN(C)CC4)c3)nc(NC3(C)CC3)c2c1=O,–
3.3,0.003,–,0.17,31,–,–,–,CN1CCC(n2cc(Nc3nc(NC4(C)CC4)c4c(=O)n(C(F)F)ccc4n3)cn2)CC1,–
2.5,0.006,210,0.18,49,2,–,–,CN1CCC(n2cc(Nc3nc(NC4(C)CC4)c4c(=O)n(-c5cn(C)nn5)ccc4n3)cn2)CC1,–
2.9,0.002,–,0.056,47,–,–,–,C[C@H](F)Cn1ccc2nc(Nc3cnn(C4CCN(C)CC4)c3)nc(NC3(C)CC3)c2c1=O,–

logD [1],IC50 [2] [µM],Papp A→B [3] [nm/s],IC50 [4] [µM],CLint [5] [µL/min/mg],efflux ratio [6],solubility [7] [µM],fraction unbound [9],SMILES,IC50 [8] [µM]
2.3,0.004,–,0.072,38,5,–,–,CN1CCC(n2cc(Nc3nc(NC4(C)CC4)c4c(=O)n(-c5cncnc5)ccc4n3)cn2)CC1,–
1.4,0.001,57,0.033,9.7,15,–,–,CN1CC2(CC(n3cc(Nc4nc(NC5(C)CC5)c5c(=O)n(C)ccc5n4)cn3)C2)C1,–
2.5,0.001,33,0.069,20,28,–,–,CN1CCC(n2cc(Nc3nc(NC4(C)CC4)c4c(=O)n(-c5cnn[nH]5)ccc4n3)cn2)CC1,–
2.8,0.005,–,0.17,47,–,–,–,C[C@H](CF)n1ccc2nc(Nc3cnn(C4CCN(C)CC4)c3)nc(NC3(C)CC3)c2c1=O,–
2.5,0.004,–,0.074,25,–,–,–,CN1CCC(n2cc(Nc3nc(NC4(C)CC4)c4c(=O)n(C5CC5)ccc4n3)cn2)CC1,–
1.7,0.015,–,0.5,< 3,–,–,–,CN1CC2(CC(n3cc(Nc4nc(NC5(C)CC5)c5c(=O)n(-c6cn(C)nn6)ccc5n4)cn3)C2)C1,–
2.9,0.021,–,0.11,41,–,–,–,C[C@@H](F)Cn1ccc2nc(Nc3cnn(C4CCN(C)CC4)c3)nc(NC3(C)CC3)c2c1=O,–
1.7,0.001,43,0.016,40,37,–,–,CN(C)CC(=O)N1CCC(n2cc(Nc3nc(NC4(C)CC4)c4c(=O)n(C)ccc4n3)cn2)CC1,–
2.4,0.0008,150,0.046,57,8.8,–,–,CN(C)C(=O)CN1CCC(n2cc(Nc3nc(NC4(C)CC4)c4c(=O)n(C)ccc4n3)cn2)CC1,–
3.3,0.005,–,0.21,32,–,–,–,CC(C)n1ccc2nc(Nc3cnn(C4CCN(C)CC4)c3)nc(NC3(C)CC3)c2c1=O,–
2.5,0.002,480,0.049,83,6,–,–,CC(=O)N1CCC(n2cc(Nc3nc(NC4(C)CC4)c4c(=O)n(C)ccc4n3)cn2)CC1,–
2.1,0.002,170,0.12,10,6.1,890,0.17,C[C@H](F)Cn1ccc2nc(Nc3cnn(C4CC5(C4)CN(C)C5)c3)nc(NC3(C)CC3)c2c1=O,4.2
1.8,0.011,160,0.32,4.7,4.5,–,–,CN1CCC(n2cc(Nc3nc(NC4(C)CC4)c4c(=O)n(-c5nnc[nH]5)ccc4n3)cn2)CC1,–
2.7,0.0006,–,0.01,61,–,–,–,CN1CC[C@H](n2cc(Nc3nc(NC4(C)CC4)c4c(=O)n(C)ccc4n3)cn2)[C@H](F)C1 (racemic),–
2.2,< 0.001,–,0.05,88,–,–,–,C[C@@H]1C[C@@H](n2cc(Nc3nc(NC4(C)CC4)c4c(=O)n(C)ccc4n3)cn2)CCN1C (racemic),–
3.2,0.001,–,0.045,98,–,–,–,CN1CC[C@H](n2cc(Nc3nc(NC4(C)CC4)c4c(=O)n(C)ccc4n3)cn2)[C@@H](F)C1 (racemic),–
2.7,0.0006,–,0.018,31,–,–,–,C[C@H]1C[C@@H](n2cc(Nc3nc(NC4(C)CC4)c4c(=O)n(C)ccc4n3)cn2)CCN1C (relative stereo),–
